Test results reported in patent US11590116B2 (THERAVANCE BIOPHARMA R&D IP, LLC, priority 2019, dated 2023).

Tests used:
[1] = biological target: T1, recombinant human ALK5 (TGF-βR1) protein (Homo sapiens, UniProt P36897); test: Biochemical ALK5 (TGF-βR1) assay to measure pKi (LANCE Ultra ULight kinase assay); conditions: apparent pKi from pIC50 by Cheng-Prusoff, read-out: ALK5 pKi (converted)
T1 construct: purchased Life Technologies PR9075A
T1 sequence (P36897 34-503): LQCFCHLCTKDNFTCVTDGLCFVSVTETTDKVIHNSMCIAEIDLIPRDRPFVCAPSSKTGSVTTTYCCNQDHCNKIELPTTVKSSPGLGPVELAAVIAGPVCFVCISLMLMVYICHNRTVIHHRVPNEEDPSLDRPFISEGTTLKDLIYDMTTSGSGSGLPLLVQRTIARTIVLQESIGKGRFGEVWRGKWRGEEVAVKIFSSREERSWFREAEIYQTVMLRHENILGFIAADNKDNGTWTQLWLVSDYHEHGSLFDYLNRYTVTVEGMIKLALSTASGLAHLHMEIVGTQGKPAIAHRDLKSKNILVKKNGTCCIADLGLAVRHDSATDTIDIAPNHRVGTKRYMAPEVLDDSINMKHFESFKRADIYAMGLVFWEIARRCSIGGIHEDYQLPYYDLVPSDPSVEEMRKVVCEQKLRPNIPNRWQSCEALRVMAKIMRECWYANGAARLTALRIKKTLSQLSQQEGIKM
How it was run: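 Dose range 10 μM–25 pM; enzyme + compound 60 min RT; ATP added (5× stock 125 μM, 2 mM DTT); 60 min 37 °C; stop with EDTA + Eu anti-phospho-Topo IIα Thr1342 Ab; TR-FRET ex 320/340, em 665 nm. 4-param pIC50 → pKi (Cheng-Prusoff).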

[2] = system: TGF-β-stimulated SMAD3 phosphorylation in BEAS-2B cells; test: Cellular ALK5 potency assay, inhibition of TGF-β stimulated pSMAD3 formation in BEAS-2B cells; assay type: cell-based; conditions: Homo sapiens; inhibition of TGF-β stimulated pSMAD3 formation, BEAS-2B cells; read-out: BEAS2B pIC50 (converted)
How it was run: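 BEAS-2B human lung epithelial cells pre-treated 1 h at 37° C with compound in HBSS/25 mM HEPES/1% BSA, then stimulated 30 min with 10 ng/mL TGF-β (final). Lysates assayed for pSMAD3 by AlphaLISA; pIC50 from dose-dependent change versus stimulated untreated cells.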

| Structure (SMILES) | Ki [1] | IC50 [2] |
| --- | --- | --- |
| COC(=O)[C@@H]1CCN(CCNc2cnc3ccc(-c4nc[nH]c4-c4cccc(C)n4)cc3c2)C1 [Compound 729, methyl (3R)-1-[2-[[6-[5-(6-methyl-2-pyridyl)-1H-imidazol-4-yl]-3-quinolyl]amino]ethyl]pyrrolidine-3-carboxylate] | 0.0398 to 0.316 nM | 25.1 to 158 nM |
| Cc1cccc(-c2n[nH]cc2-c2ccc3nccc(NCCN4CCOCC4)c3n2)n1 [Compound 823, 6-[3-(6-methyl-2-pyridyl)-1H-pyrazol-4-yl]-N-(2-morpholinoethyl)-1,5-naphthyridin-4-amine] | 0.398 to 3.16 nM | 200 to 1260 nM |
| Cc1nc(-c2n[nH]cc2-c2ccc3ncc(-c4cnn(C[C@H]5C[C@@H](N)C5)c4)cc3n2)ccc1F [Compound 517, 3-[[4-[6-[3-(5-fluoro-6-methyl-2-pyridyl)-1H-pyrazol-4-yl]-1,5-naphthyridin-3-yl]pyrazol-1-yl]methyl]cyclobutanamine] | 0.0398 to 0.316 nM | 25.1 to 158 nM |
| Cc1cccc(-c2[nH]cnc2-c2ccc3ncc(N4CCC(NCCSC5CCOC5=O)C4)cc3c2)n1 (stereo not drawn) [Compound 230, 3-[2-[[1-[6-[5-(6-methyl-2-pyridyl)-1H-imidazol-4-yl]-3-quinolyl]pyrrolidin-3-yl]amino]ethylsulfanyl]tetrahydrofuran-2-one] | < 0.0316 nM | 25.1 to 158 nM |
| CNCCn1cc(-c2cnc3ccc(-c4c[nH]nc4-c4cccc(C(F)F)n4)nc3c2)cn1 [Compound 481, 2-[4-[6-[3-[6-(difluoromethyl)-2-pyridyl]-1H-pyrazol-4-yl]-1,5-naphthyridin-3-yl]pyrazol-1-yl]-N-methyl-ethanamine] | < 0.0316 nM | 25.1 to 158 nM |
| Cc1cccc(-c2n[nH]cc2-c2ccc3ncc(-c4nnn5c4NCC5)cc3n2)n1 [Compound 5, 7-(5,6-dihydro-4H-imidazo[1,2-c]triazol-3-yl)-2-[3-(6-methyl-2-pyridyl)-1H-pyrazol-4-yl]-1,5-naphthyridine] | < 0.0316 nM | 25.1 to 158 nM |
| Cc1cccc(-c2[nH]ncc2-c2ccc3ncc(C(=O)N4CC(N5CCOCC5)C4)cc3n2)n1 [Compound 352, [6-[5-(6-methyl-2-pyridyl)-1H-pyrazol-4-yl]-1,5-naphthyridin-3-yl]-(3-morpholinoazetidin-1-yl)methanone] | 3.98 to 31.6 nM | 200 to 1260 nM |
| Cc1cccc(-c2n[nH]cc2-c2ccc3ncc(N4CCCN(CC5CCCN5)CC4)cc3n2)n1 (stereo not drawn) [Compound 274, 2-[3-(6-methyl-2-pyridyl)-1H-pyrazol-4-yl]-7-[4-(pyrrolidin-2-ylmethyl)-1,4-diazepan-1-yl]-1,5-naphthyridine] | 0.0398 to 0.316 nM | 200 to 1260 nM |
| Cc1cccc(-c2[nH]cnc2-c2ccc3ncc(NCCNC4CNC4)cc3c2)n1 [Compound 189, N′-(azetidin-3-yl)-N-[6-[5-(6-methyl-2-pyridyl)-1H-imidazol-4-yl]-3-quinolyl]ethane-1,2-diamine] | 0.0398 to 0.316 nM | 200 to 1260 nM |
| CNCCn1cc(-c2cnc3ccc(-c4c(-c5ccc(F)c(C)n5)nc5ccccn45)cc3c2)cn1 [Compound 79, 2-[4-[6-[2-(5-fluoro-6-methyl-2-pyridyl)imidazo[1,2-a]pyridin-3-yl]-3-quinolyl]pyrazol-1-yl]-N-methyl-ethanamine] | 0.0398 to 0.316 nM | 25.1 to 158 nM |
| Cc1cccc(-c2[nH]cnc2-c2ccc3ncc(C(=O)OCCN4C[C@@H](C)N[C@@H](C)C4)cc3c2)n1 [Compound 886, 2-((3S,5R)-3,5-dimethylpiperazin-1-yl)ethyl 6-(5-(6-methylpyridin-2-yl)-1H-imidazol-4-yl)quinoline-3-carboxylate] | 0.0398 to 0.316 nM | 25.1 to 158 nM |
| Cc1nc(-c2n[nH]cc2-c2ccc3ncc(NCCN4CCCC4)cc3n2)ccc1F [Compound 381, 6-[3-(5-fluoro-6-methyl-2-pyridyl)-1H-pyrazol-4-yl]-N-(2-pyrrolidin-1-ylethyl)-1,5-naphthyridin-3-amine] | < 0.0316 nM | 25.1 to 158 nM |
| Cc1cccc(-c2[nH]cnc2-c2ccc3ncc(NCCN4CCC5(CC4)CNC5)cc3c2)n1 [Compound 404, N-[2-(2,7-diazaspiro[3.5]nonan-7-yl)ethyl]-6-[5-(6-methyl-2-pyridyl)-1H-imidazol-4-yl]quinolin-3-amine] | 0.0398 to 0.316 nM | 200 to 1260 nM |
| Cc1cccc(-c2n[nH]cc2-c2ccc3ncc(NCCN4CCCC4)cc3n2)n1 [Compound 597, 6-[3-(6-methyl-2-pyridyl)-1H-pyrazol-4-yl]-N-(2-pyrrolidin-1-ylethyl)-1,5-naphthyridin-3-amine] | < 0.0316 nM | 25.1 to 158 nM |
| Cc1cccc(-c2[nH]ncc2-c2ccc3ncc(C(=O)O[C@H]4CC[C@@H](N)CC4)cc3c2)n1 [Compound 1228, (4-aminocyclohexyl) 6-[5-(6-methyl-2-pyridyl)-1H-pyrazol-4-yl]quinoline-3-carboxylate] | 0.0398 to 0.316 nM | 25.1 to 158 nM |
| Cc1cccc(-c2nnn(Cc3ccccc3)c2-c2ccc3ncc(N4CCC(N(C)C)C4)cc3c2)n1 (stereo not drawn) [Compound 191, 1-[6-[3-benzyl-5-(6-methyl-2-pyridyl)triazol-4-yl]-3-quinolyl]-N,N-dimethyl-pyrrolidin-3-amine] | 0.0398 to 0.316 nM | 25.1 to 158 nM |
| Cc1cccc(-c2nnn(Cc3ccccc3)c2-c2ccc3ncc(-c4c[nH]nc4C(F)(F)F)cc3n2)n1 [Compound 288, 2-[3-benzyl-5-(6-methyl-2-pyridyl)triazol-4-yl]-7-[3-(trifluoromethyl)-1H-pyrazol-4-yl]-1,5-naphthyridine] | 0.398 to 3.16 nM | 25.1 to 158 nM |
| Cc1cccc(-c2[nH]cnc2-c2ccc3ncc(C4=CCN(C(C)C)C4)cc3n2)n1 [Compound 253, 7-(1-isopropyl-2,5-dihydropyrrol-3-yl)-2-[5-(6-methyl-2-pyridyl)-1H-imidazol-4-yl]-1,5-naphthyridine] | 0.0398 to 0.316 nM | 25.1 to 158 nM |
| Cc1cccc(-c2[nH]cnc2-c2ccc3ncc(-c4cnc(C(=O)OCC5CNC5)nc4)cc3c2)n1 [Compound 1052, azetidin-3-ylmethyl 5-[6-[5-(6-methyl-2-pyridyl)-1H-imidazol-4-yl]-3-quinolyl]pyrimidine-2-carboxylate] | 0.398 to 3.16 nM | 200 to 1260 nM |
| COc1[nH]nc(-c2cccc(C)n2)c1-c1ccc2ncc(NCCN3CCN(C(C)C)CC3)cc2n1 [Compound 394, N-[2-(4-isopropylpiperazin-1-yl)ethyl]-6-[5-methoxy-3-(6-methyl-2-pyridyl)-1H-pyrazol-4-yl]-1,5-naphthyridin-3-amine] | 0.0398 to 0.316 nM | 200 to 1260 nM |
| Cc1cccc(-c2n[nH]cc2-c2ccc3ncc(-c4nc5n(n4)CCNC5)cc3n2)n1 [Compound 67, 2-[3-(6-methyl-2-pyridyl)-1H-pyrazol-4-yl]-7-(5,6,7,8-tetrahydro-[1,2,4]triazolo[1,5-a]pyrazin-2-yl)-1,5-naphthyridine] | 0.0398 to 0.316 nM | 25.1 to 158 nM |
| Cc1cccc(-c2[nH]cnc2-c2ccc3ncc(N4CCC(N)CC4)cc3c2)n1 [Compound 438, 1-[6-[5-(6-methyl-2-pyridyl)-1H-imidazol-4-yl]-3-quinolyl]piperidin-4-amine] | 0.0398 to 0.316 nM | 25.1 to 158 nM |
| Cc1cccc(-c2n[nH]cc2-c2ccc3ncc(C(N)=O)cc3n2)n1 [Compound 607, 6-[3-(6-methyl-2-pyridyl)-1H-pyrazol-4-yl]-1,5-naphthyridine-3-carboxamide] | 0.0398 to 0.316 nM | 25.1 to 158 nM |
| Cc1cccc(-c2[nH]cnc2-c2ccc3ncc(NCCNC4CCCNC4)cc3c2)n1 (racemic) [Compound 217, N-[6-[5-(6-methyl-2-pyridyl)-1H-imidazol-4-yl]-3-quinolyl]-N′-[rac-(3R)-3-piperidyl]ethane-1,2-diamine] | 0.0398 to 0.316 nM | 200 to 1260 nM |
| Cc1cccc(-c2n[nH]cc2-c2ccc3ncc(CNCCCN4CCN(C(C)C)CC4)cc3n2)n1 [Compound 218, 3-(4-isopropylpiperazin-1-yl)-N-[[6-[3-(6-methyl-2-pyridyl)-1H-pyrazol-4-yl]-1,5-naphthyridin-3-yl]methyl]propan-1-amine] | 0.398 to 3.16 nM | 200 to 1260 nM |
| Cc1cccc(-c2[nH]cnc2-c2ccc3ncc(-c4csc(C(=O)O[C@H]5C[C@@H](N)C5)c4)cc3c2)n1 [Compound 1243, (3-aminocyclobutyl) 4-[6-[5-(6-methyl-2-pyridyl)-1H-imidazol-4-yl]-3-quinolyl]thiophene-2-carboxylate] | < 0.0316 nM | 25.1 to 158 nM |
| Cc1cccc(-c2[nH]cnc2-c2ccc3ncc(-c4ccc(C(=O)OCCN5CCN6CCCC6C5)cn4)cc3c2)n1 (stereo not drawn) [Compound 1212, 2-(3,4,6,7,8,8a-hexahydro-1H-pyrrolo[1,2-a]pyrazin-2-yl)ethyl 6-[6-[5-(6-methyl-2-pyridyl)-1H-imidazol-4-yl]-3-quinolyl]pyridine-3-carboxylate] | 0.0398 to 0.316 nM | 25.1 to 158 nM |
